Reference: PMC9410094 (Marine Drugs, 2022)
≈ marks a conversion by molar mass, not a printed value. Positions of bridges follow the written chain, without caps; N, C: chain ends. Residues, ends and D or L forms follow the SMILES beside them.

Key:
[1] = test system: P. aeruginosa PAO1; assay: Inhibition of biofilm formation, crystal violet; format: cell-based; conditions: 24 h, LB, 32 °C
Excerpt: Such an adaptive and survival mechanism is mediated by biofilms, which constitutes the community of sessile bacteria embedded within the self-produced extracellular polymeric substance (EPS) that defends them from chemical, biological, and physical stress; it also […] foreign invaders. Besides the fact that EPS decreases concentration of antibiotics, bacteria inside biofilm are characterized by a reduced rate of cell divisions, an increased expression of stress response genes, an occurrence of persistent cells, and exchange of resistance genes leading to a broader spread of tolerant biofilm-growing bacteria. For the treatment of biofilm-associated infections a high concentration of antibiotics is required that also increases toxicity toward human cells. Antimicrobial peptides are able to act on certain stages of biofilm formation and various molecular targets and are considered as promising candidates for the development of new antibiofilm agents. […] Bacterial biomass amount was evaluated using the standard crystal violet assay over a 24 h incubation period with each drug. […]
Masses of biofilms were evaluated by dying with 0.1% CV. […]
The ability of peptides to influence the formation of biofilms was evaluated by the method of two-fold serial dilutions in a liquid nutrient medium. […] Further, the extracts were transferred to a new plate and absorption was measured at 570 nm. […]

[2] = test system: E. coli 3421/E19; assay: Neutropenic mice peritonitis model; format: in vivo, BALB/c mice; conditions: for Bacterial burden in mice blood (in words) / Reduction of the CFU level in peritoneal fluid (PF): neutropenic BALB/c mice, CFU 5 h after treatment; for Bacterial burden in mice blood (in words): n = 5, i.p. infection, single i.v. dose 1 h post-infection (AMPs 10 mg/kg, polymyxin B 5 mg/kg); for Reduction of the CFU level in peritoneal fluid (PF): n = 5, single i.v. dose (AMPs 10 mg/kg, polymyxin B 5 mg/kg)
Procedure: Immune-deficient mice were inoculated intraperitoneally (i.p.) with bacterial suspension. Antimicrobial agent was administered 1 h post-infection, and colony counts in blood and peritoneal fluid (PF) were determined 5 h later.
(A) The mice peritonitis model. […] Horizontal bars indicate means ± SD.
Food and water were provided ad libitum.
CFU counts were determined from blood and peritoneal fluid (PF) 5 h after treatment. The mice were euthanized by CO2 asphyxiation and blood was collected by axillary cut down. A total of 2 mL sterile saline was injected i.p. and the abdomen gently massaged before it was opened, fluid sampled with a pipette, serially diluted and placed on Endo agar supplemented with 20 µg/mL of tetracycline for CFU identification.

[3] = test system: E. coli MDR Cl 1057; assay: Resistance induction by serial passages; format: cell-based; conditions: E. coli MDR Cl 1057, 0.9% NaCl-enriched Mueller–Hinton medium
Procedure: One of them involves a series passage with suspension of a test strain and liquid medium containing an antibacterial agent at concentrations near the MIC, which progressively increases during the experiment until resistant mutants are enriched. Bacteria that grew at the highest concentration of drug are used in the final step of the test that determines the final MIC value [18].
The ability of peptides to induce bacterial resistance was assessed by the method of two-fold serial dilutions; this test was repeated every day. […] Next, on the second day, 2 μL of the bacterial suspension was taken from the well containing the sub-inhibitory concentration of the drug as close as possible to the MIC and diluted with 1 mL of the same media.

[4] = test system: P. aeruginosa PAO1 mature biofilms; assay: Effect on mature biofilms, viability by MTT; conditions: P. aeruginosa PAO1 pre-formed biofilm, 16 µM, 2-h exposure
Procedure: Biofilm viability was measured by tetrazolium salt reduction (right panel). Values are presented as means ± the standard deviation (SD) of three independent experiments.
The effect of peptides on pre-formed biofilms was evaluated as follows. Biofilms were grown on a 96-well plate at 32 °C for 24 h and stirred at 120 rpm to ensure biofilm formation primarily on the wall of the wells. […] Bacterial survival in the biofilms after 2-h exposure was evaluated via a MTT assay after incubation with a tested peptide. Then, wells were rinsed with sterile water, treated with an MTT solution (Sigma, Kawasaki, Kanagawa, Japan) in PBS, and incubated for 4 h at 37 °C. Next, the medium was removed. The resulting formazan crystals were dissolved in a mixture of EtOH and DMSO (1:1) for 10 min. The optical density of the solution was measured at 570 nm. Bacterial survival was calculated as percent relative to samples without antimicrobial agent. All data were obtained from at least three independent experiments in 3 repetitions.

[5] = test system: Gram-negative bacteria; assay: Geometric mean of MICs, Gram-negative panel; format: cell-based; conditions: geometric mean (GM) of MICs against the 14 Gram-negative strains of Figure 2
Procedure: (§1) The antimicrobial activity of the peptides was determined via the method of two-fold serial dilutions in sterile 96-well flat-bottom polystyrene microplates (Eppendorf #0030730011) in Mueller–Hinton broth (MHB, Sigma, Kawasaki, Kanagawa, Japan) supplemented with 0.9% NaCl. Bacterial cultures were grown in MHB at 37 °C until the culture reached an optical density OD600 of 1.0 and diluted with the broth so that to reach a final cell concentration of 10^6 CFU/mL. Then 50 μL of the test culture were added to 50 μL of aqueous solutions of the peptides, previously diluted in 0.1% sterilized bovine serum albumin (BSA) to reduce non-specific binding of the peptides to the surface of the plates. Next, the plate was incubated for 24 h at 37 °C and 950 rpm on the plate thermoshaker (Biosan). The values of the minimum inhibitory concentrations (MIC) were determined as the minimum concentration of the peptide, at which there is no culture growth. The results were expressed as the median values of three independent experiments performed in triplicate.

[6] = in vitro; conditions: male, human, 25% fresh human serum, pH 7.4
Procedure: After incubation, serum proteins were selectively precipitated from the mixture by adding 10% TFA in the presence of 3 M urea. […] Two independent experiments in duplicate were performed for each peptide.

[7] = RP-HPLC retention time as measure of hydrophobicity; format: physicochemical; conditions: chromatographic, semipreparative RP-HPLC, C18 column, linear gradient 5 to 80% (v/v) acetonitrile in water with 0.1% TFA within 50 minutes; used as measure of hydrophobicity
Procedure: Table S1. Characteristics of the recombinant AMPs.
1 Mean Kyte–Doolittle hydrophobicity index (GRAVY) was calculated using the Expasy ProtParam tool. The maximum and minimum values of this index are +4.5 and -4.5 for poly-Ile and poly-Arg sequences, respectively. 2 Retention times were measured using semipreparative reversed-phase high-performance liquid chromatography (RP - HPLC) on a C18 column with a linear gradient from 5 to 80% ( v/v) acetonitrile in water containing 0.1% trifluoroacetic […]
acid (TFA) within 50 minutes. […]

[8] = test system: E. coli ML-35p
Procedure: Initially, antimicrobial activity of abarenicin and UuBRI-21 was evaluated against the reference strain of E. coli (ML-35p) under various conditions (Table 1). Minimal inhibitory concentrations (MICs) were determined via two-fold serial dilutions in 96-well polystyrene plates. Serial dilutions were made in 0.1% bovine serum albumin (BSA) to minimize the absorption of peptides on the surface of plate wells. Mueller–Hinton broth (MHB) supplemented with 0.9% NaCl was used as the standardized medium.
as §1, with “Bacterial” for “The antimicrobial activity of the peptides was determined via the method of two-fold serial dilutions in sterile 96-well flat-bottom polystyrene microplates (Eppendorf #0030730011) in Mueller–Hinton broth (MHB, Sigma, Kawasaki, Kanagawa, Japan) supplemented with 0.9% NaCl. Bacterial”

[9] = test system: E. coli ATCC 25922; format: cell-based; conditions: MHB + 0.9% NaCl, 0.1% BSA, 24 h, 37 °C; median of three independent experiments
[10] = test system: human red blood cells; format: cell-based
Procedure: Figure 4 (A) Hemolytic effect on human red blood cells after 2 h incubation (hemoglobin release assay). (B) Cytotoxicity toward transformed human embryonic kidney cells after 20 h incubation (MTT-assay). The positive control used was 0.1% Triton X-100 and sterile PBS as a negative control. Melittin was used as an additional positive control. The data are presented as the mean ± SD of three independent experiments.
The hemolytic activity of compounds was performed using human red blood cells (hRBS) of healthy donor. Fresh blood was centrifuged to separate the erythrocyte fraction for 15 min at 500 g and washed three times with cold phosphate-buffered saline (PBS) (pH 7.4), after which an 8% (v/v) suspension of erythrocytes in PBS was prepared. Then, 50 µL of erythrocyte suspension was added to the test peptides, previously were dissolved in 50 µL of 0.1% BSA. The plate was incubated for 1.5 h at 37 °C and 950 rpm on the plate thermoshaker. After incubation, the plates were centrifuged for 15 min at 1000 g to settle intact erythrocytes. Next, aliquots of the supernatant were transferred to another plate to measure the amount of hemoglobin release by the absorbance of the solution at 405 nm. As “zero lysis” we used the supernatant obtained after centrifugation of erythrocytes incubated in a PBS solution without the addition of a peptide. As “100% lysis”, we used the supernatant obtained after centrifugation of erythrocytes incubated in a 0.1% Triton X-100, causing their complete lysis. The assays were conducted three times. The quantitative data were presented as an average means with standard deviations. Hemolysis(%)=OD405(compound)−OD405(zerolysis)/OD405(100%lysis)−OD405(zerolysis)×100%

[11] = test system: Gram-positive bacteria; format: cell-based; conditions: 24 h
Procedure: as §1

[12] = test system: E. coli ATCC 25922; assay: Mice septicemia model, survival; conditions: BALB/c mice, n = 8, E. coli ATCC 25922 i.p. with 2.5% mucin; peptide i.p. 10 mg/kg at 1 and 4 h post-infection; 7 days
Procedure: Ciprofloxacin (the single dose of 10 mg/kg) and saline were used as the positive and negative controls, respectively. […] Mice were controlled once daily for their health status during 7 post-infection days.
Then, we examined an efficacy of AMPs in the mice septicemia model using 8 animals in a group (Figure 10B).
Experiments were performed with female 8–10-week-old BALB/c mice (22–24 g, “Andreevka” laboratory animal nursery FMBA, Russia). […] All animal experiments were performed at the State Research Center for Applied Microbiology and Biotechnology (SRCAMB) in Obolensk, Russia. The animals were housed in groups of 5 in polycarbonate cages. Food and water were provided ad libitum.
A total of 4 groups with 8 animals were used. The first group received ciprofloxacin (Sigma, Kawasaki, Kanagawa, Japan) administered i.p. once (1 h post-infection) at a dose of 10 mg/kg. The second group received saline (as a vehicle control) administered i.p. once (1 h post-infection). […] Survival was monitored for 7 days. After that survived animals were euthanized by CO2 asphyxiation.

[13] = 25% human serum in PBS (pH 7.4) from healthy donor; conditions: 37 °C, up to 24 h

Row | Compound | Inhibition of biofilm formation (in words) [1] | Bacterial burden in mice blood (in words) [2] | Reduction of the CFU level in peritoneal fluid (PF) [2] | Initial MIC in resistance induction experiment [3] [µM] | Residual viability of bacteria in mature biofilm [4] | Minimum inhibitory concentration (MIC): Gram-negative Geometric mean [5] [µM] | remaining at 2 h, 0.12 mg/mL [6] [%] | RP-HPLC Retention Time [7] [min] | Fold reduction of antibacterial activity in the presence of serum ([8]; MHB + 0.9% NaCl with 25% FBS versus without) [fold] | Minimum Inhibitory Concentration, MHB + 0.9% NaCl + 25% FBS ([8]; Table 1, medium with 25% fetal bovine serum) [µM] | Minimum Inhibitory Concentration, MHB + 0.9% NaCl ([8]; Table 1, without FBS, dilutions in 0.1% BSA) [µM] | Minimum inhibitory concentration (MIC): E. coli ATCC 25922 [9] [µM] | Hemolytic activity (in words) [10] | Minimum inhibitory concentration (MIC): Gram-positive Geometric mean [11] [µM] | Therapeutic efficacy (survival) after one-week experiment [12] [%] | Efficacy in the neutropenic peritonitis model (in words) ([2]; single i.v. dose of 10 mg/kg, E. coli 3421/E19) | cleaved bond [13]
1 | polymyxin B [reference compound] | modest inhibition of biofilm | complete reduction | ~ 5 log | 0.125 | about 20% |  |  |  |  |  |  |  |  |  |  |  | 
2 | CC[C@H](C)[C@@H]1NC(=O)[C@H](CCCNC(=N)N)NC(=O)[C@H](C(C)C)NC(=O)CNC(=O)[C@H](CC(N)=O)NC(=O)[C@H](CCCNC(=N)N)NC(=O)[C@H](CC(C)C)NC(=O)[C@H](Cc2ccc(O)cc2)NC(=O)[C@@H]2CSSC[C@H](NC1=O)C(=O)N[C@@H](Cc1ccc(O)cc1)C(=O)N[C@@H](CCCNC(=N)N)C(=O)N[C@@H](CCCNC(=N)N)C(=O)N[C@H](C(=O)N[C@@H](CC(N)=O)C(=O)O)CSSC[C@H](NC(=O)[C@H](Cc1ccc(O)cc1)NC(=O)CN)C(=O)N[C@@H](Cc1ccccc1)C(=O)N[C@@H]([C@@H](C)O)C(=O)N[C@@H](C)C(=O)N2 [Abarenicin] (H-GYCFTACYLRNGVRICYRRCN-OH; disulfide 3-20, 7-16) |  |  |  |  |  | 0.45 (≈ 1.14 µg/mL) | > 90 | 25.77 | 4 | 1 | 0.25 | 0.25 | moderate hemolytic activity | 2.52 (≈ 6.37 µg/mL) |  |  | 
3 | CC[C@H](C)[C@@H]1NC(=O)[C@H](CCCNC(=N)N)NC(=O)[C@H](C(C)C)NC(=O)CNC(=O)[C@H](CC(N)=O)NC(=O)[C@H](CCCNC(=N)N)NC(=O)[C@H](CCCNC(=N)N)NC(=O)[C@H](C)NC(=O)[C@@H]2CSSC[C@H](NC1=O)C(=O)N[C@@H](Cc1ccc(O)cc1)C(=O)N[C@@H](CCCNC(=N)N)C(=O)N[C@@H](CCCNC(=N)N)C(=O)N[C@H](C(=O)N[C@@H](CC(N)=O)C(=O)O)CSSC[C@H](NC(=O)[C@H](Cc1ccc(O)cc1)NC(=O)CN)C(=O)N[C@@H](Cc1ccccc1)C(=O)N[C@@H]([C@@H](C)O)C(=O)N[C@@H](C)C(=O)N2 [Ap9] | more effective in biofilm prevention at sub-inhibitory concentration | complete reduction | ~ 5 log |  | about 20% | 0.26 (≈ 0.645 µg/mL) |  | 25.37 |  |  |  |  | insignificant toxicity toward human erythrocytes | 3.17 (≈ 7.86 µg/mL) | 100 | effective | 
4 | GYCFTACYLRNGVRICYRRCN |  |  |  |  |  |  |  |  |  |  |  |  |  |  |  |  | glycine-Y, major
